Data on 59 compounds can be found in publication PMC12040169 (PLOS Biology, 2025).

The structures appear in SMILES notation.

A short description of this data set: in vitro. The note with it: human, hela cells, % viability.
As usually defined, the viability is a read-out of living cells in per cent, often relative to untreated cells. On to `CN1CCC(COC(=O)Nc2cccnc2)CC1` [CBK138232], for which the viability at 28.5 h, 10 µM was found to be 108%. As for `Cc1cc(C)nc(NC(=O)OCCc2cccnc2)c1` [CBK138234], the figure is 95.1%; as for `Cc1cc(C)nc(NC(=O)OCCN2CCN(C)CC2)c1` [CBK138235], 92.2%; as for `Cc1ncccc1COC(=O)Nc1cccnc1` [CBK138237], 94.3%.

For the compound `NC(=O)CCN1CCC(Cc2ccccc2)CC1` [CBK138317], the viability at 28.5 h, 10 µM worked out at 117%. `O=c1[nH]c2ccccc2n1CCCN1CCC(Cc2ccccc2)CC1` [CBK138318]: the viability at 28.5 h, 10 µM amounted to 104%.

For `COc1cc2c(cc1OC)CN(CC1CCCCC1)CC2` [CBK138321], the viability at 28.5 h, 10 µM is 101%. The result for `COc1cc2c(cc1OC)CN(CCO)CC2` [CBK138322] reads 108%; that for `c1ccc(CCN2CCN(Cc3ncc[nH]3)CC2)cc1` [CBK138328], 120%; that for `c1ccc2c(c1)CCCN2Cc1nc2ccccc2[nH]1` [CBK138329], 107%. Take `c1ccc2c(c1)CCCN2CCc1c[nH]c2ccccc12` [CBK138330]: the viability at 28.5 h, 10 µM was 97.3%. The result for `O=c1cc(CN2CCCc3ccccc32)[nH]c(=O)[nH]1` [CBK138331] reads 95.1%; that for `c1ccc2c(c1)CCCN2Cc1ncc[nH]1` [CBK138332], 89.2%; that for `COc1ccc(Cl)cc1N1CCN(CC2CCCCC2)CC1` [CBK138336], 77.8%. As for `c1ccc(CCN2CCN(CC3COc4ccccc4O3)CC2)cc1` (centres unmarked) [CBK138342], the figure is 86%; as for `NC(=O)CN1CCCc2ccccc21` [CBK138343], 90%. In the case of `COc1ccc(CCC(=O)Nc2cccc(OCCC3CCNCC3)c2)cc1OC` [CBK138350], the viability at 28.5 h, 10 µM stood at 95.6%. As to `COc1cc(CC(=O)Nc2cccc(-c3ccc(OC4CCNCC4)cc3)n2)cc(OC)c1OC` [CBK138351], the viability at 28.5 h, 10 µM amounted to 83.4%. Turning to `CC(C)[C@@]1(C)SC(N[C@H]2C[C@H]3C[C@@H]2C[C@@H]3O)=NC1=O` [CBK138400], the viability at 28.5 h, 10 µM was 102%.

On to `C[C@H](NC1=NC(=O)[C@@](C)(C(C)(C)O)S1)c1ccc(F)cc1` [CBK138436], for which the viability at 28.5 h, 10 µM was found to be 98.1%. With `CC(=O)Nc1cccc(-c2cnc(NCc3ccc4c(c3)OCO4)c(C(=O)NCC3COc4ccccc4O3)c2)c1` (centres unmarked) [CBK138473T], the viability at 28.5 h, 10 µM was found to be 116%. The result for `Nc1ccc(-c2cnc(NCc3ccc4c(c3)OCO4)c(C(=O)Nc3ccc4c(c3)OCCO4)c2)cc1` [CBK138480T] reads 106%.

In the case of `Nc1ncc(-c2ccc(C(=O)N3CCOCC3)cc2)nc1-c1ccc(Cl)s1` [CBK138510], the viability at 28.5 h, 10 µM was 93.6%. The result for `CC(C)CCC(=O)Nc1ccc(N2CCN(C(=O)c3ccccc3C(F)(F)F)CC2)nn1` [CBK138629] reads 100%; that for `Cn1c(=O)[nH]c(=O)c2c1nc(N/N=C/c1cc(Br)ccc1O)n2CCO` [CBK139415], 97.8%; that for `CC(C)OCC(O)Cn1c(N/N=C/c2ccccc2O)nc2c1c(=O)[nH]c(=O)n2C` (centres unmarked) [CBK139853], 101%.

Turning to `Cn1c(=O)c2c(nc(NCc3ccccc3)n2C)n(C)c1=O` [CBK139872], the viability at 28.5 h, 10 µM turned out to be 95.9%. As for `CC(C)n1c(NCc2ccccc2)nc2c1c(=O)n(C)c(=O)n2C` [CBK140094], the figure is 78.2%; as for `Fc1ccc(C(c2nnnn2C2CCCCC2)N2CCCCC2)cc1` (centres unmarked) [CBK141670], 94.9%; as for `CN1CCN(C(c2cccs2)c2nnnn2C(C)(C)C)CC1` (centres unmarked) [CBK141702], 91.9%. Consider `Cc1ccc(C)c(-n2nnnc2SCC(=O)c2ccc(Cl)cc2Cl)c1` [CBK141941], for which the viability at 28.5 h, 10 µM is 98.1%. As for `CCOc1ccc(-n2nnnc2SCC(=O)c2ccc(Cl)c(Cl)c2)cc1` [CBK141942], the figure is 88.7%; as for `O=C(Nc1ccccc1C(F)(F)F)NC1CC2CCCC(C1)N2C1CC1` (centres unmarked) [CBK143578], 103%; as for `O=C(NCc1ccccc1)c1ccc2nc[nH]c2c1` [CBK143739], 91.9%. The result for `CC(C)C(=O)N1CC2(CCN(CC3COc4ccccc4O3)CC2)c2ccccc21` (centres unmarked) [CBK143946] reads 98.2%. The result for `O=C(CO)N1CC2(CCN(CC3COc4ccccc4O3)CC2)c2ccccc21` (centres unmarked) [CBK143951] reads 105%. Take `OCCN1CC2(CCN(CC3COc4ccccc4O3)CC2)c2ccccc21` (centres unmarked) [CBK143955]: the viability at 28.5 h, 10 µM came out at 86.7%. In the case of `NC(=O)CN1CC2(CCN(CC3COc4ccccc4O3)CC2)c2ccccc21` (centres unmarked) [CBK143960], the viability at 28.5 h, 10 µM was determined as 89.4%.

On to `CCN(CCCCC1NC(=O)NC1=O)Cc1ccncc1` (centres unmarked) [CBK143967], for which the viability at 28.5 h, 10 µM is 89.1%. For `CS(=O)(=O)c1ccc(CN2CCC3(CCN(Cc4ccccc4)CC3)C2)cc1` [CBK144066T], the viability at 28.5 h, 10 µM worked out at 92.2%.

Regarding `Cc1onc(-c2ccccc2)c1CNC(=O)CC1CC1` [CBK144072], the viability at 28.5 h, 10 µM came out at 85.4%. With `Cc1onc(-c2ccccc2)c1CNC(=O)c1ccco1` [CBK144074], the viability at 28.5 h, 10 µM was found to be 90.5%.

As for `Cc1cc(C(=O)NCc2c(-c3ccccc3)noc2C)n[nH]1` [CBK144076], the viability at 28.5 h, 10 µM is 91.4%.

As for `Cc1onc(-c2ccccc2)c1CNC(=O)[C@@H]1CCCN1C` [CBK144077], the viability at 28.5 h, 10 µM was determined as 89.8%.

With `Cc1onc(-c2ccccc2)c1CNC(=O)CC1CCCCC1` [CBK144078], the viability at 28.5 h, 10 µM was 89.1%. On to `Cc1onc(-c2ccccc2)c1CNC(=O)c1cccc(C(F)(F)F)c1` [CBK144079], for which the viability at 28.5 h, 10 µM was determined as 93.6%. In the case of `Cc1cc(CC(=O)NCc2c(-c3ccccc3)noc2C)on1` [CBK144090], the viability at 28.5 h, 10 µM turned out to be 92.2%. As for `CSCCC(=O)NCc1c(-c2ccccc2)noc1C` [CBK144092], the figure is 85.9%. Turning to `Cc1onc(-c2ccccc2)c1CNC(=O)Cn1cc(C)c(=O)[nH]c1=O` [CBK144094], the viability at 28.5 h, 10 µM worked out at 87.6%. As for `COc1cc(C(=O)NCc2c(-c3ccccc3)noc2C)cc(OC)c1OC` [CBK144097], the figure is 93.9%; as for `Cc1onc(-c2ccccc2)c1CNC(=O)c1cncnc1` [CBK144098], 90.6%; as for `CC1(C)CC(=O)c2sc(NC(=O)C3COc4ccccc4O3)nc2C1` (centres unmarked) [CBK144104], 112%. `CC1(C)CC(=O)c2sc(NC(=O)c3ccc(Oc4ccccc4)cc3)nc2C1` [CBK144106]: the viability at 28.5 h, 10 µM was 95.5%. The result for `CC1(C)CC(=O)c2sc(NC(=O)c3cncnc3)nc2C1` [CBK144107] reads 101%. As for `O=C(CC1CC1)NC(c1ccccc1)c1ccccn1` (centres unmarked) [CBK144108], the figure is 103%; as for `O=C(NC(c1ccccc1)c1ccccn1)c1ccco1` (centres unmarked) [CBK144109], 106%; as for `O=C(Cc1ccc(Cl)c(Cl)c1)NC(c1ccccc1)c1ccccn1` (centres unmarked) [CBK144110], 92.8%. In the case of `CC1CCN(Cc2ccc(-c3nnn(CC(=O)NCc4ccc(S(C)(=O)=O)cc4)n3)cc2)CC1` [CBK144152C], the viability at 28.5 h, 10 µM turned out to be 94.3%.

For `CC1CCN(Cc2ccc(-c3nnn(CC(=O)NCc4ccc(O)cc4)n3)cc2)CC1` [CBK144156C], the viability at 28.5 h, 10 µM was 90.9%.
